Assay results: the supplement of paper PMC13380429

Legend:
Settings in all cases: 72 h
Vero E6 [1] = experiment: cell viability relative to DMSO; higher = less toxic
U2OS [2] = experiment: as above
Calu-3 [3] = experiment: as above
HepG2 [4] = experiment: as above
Caco-2 [5] = experiment: as above
Vero E6 [6] = experiment: drug sensitivity score (DSS) for viability; higher = more toxic; extreme values may be limits of the assay
U2OS [7] = experiment: as above
Calu-3 [8] = experiment: as above
HepG2 [9] = experiment: as above
Caco-2 [10] = experiment: as above
Vero E6 [11] = experiment: relative viability EC50 (midpoint between 100% and the lowest measured viability); higher = less toxic
U2OS [12] = experiment: as above
Calu-3 [13] = experiment: as above
HepG2 [14] = experiment: as above
Caco-2 [15] = experiment: as above

Structure (SMILES)	cell viability (Vero E6 [1]; 1 nM)	cell viability (Vero E6 [1]; 10 nM)	cell viability (Vero E6 [1]; 100 nM)	cell viability (Vero E6 [1]; 1000 nM)	cell viability (Vero E6 [1]; 10000 nM)	cell viability (U2OS [2]; 1 nM)	cell viability (U2OS [2]; 10 nM)	cell viability (U2OS [2]; 100 nM)	cell viability (U2OS [2]; 1000 nM)	cell viability (U2OS [2]; 10000 nM)	cell viability (Calu-3 [3]; 1 nM)	cell viability (Calu-3 [3]; 10 nM)	cell viability (Calu-3 [3]; 100 nM)	cell viability (Calu-3 [3]; 1000 nM)	cell viability (Calu-3 [3]; 10000 nM)	cell viability (HepG2 [4]; 1 nM)	cell viability (HepG2 [4]; 10 nM)	cell viability (HepG2 [4]; 100 nM)	cell viability (HepG2 [4]; 1000 nM)	cell viability (HepG2 [4]; 10000 nM)	cell viability (Caco-2 [5]; 1 nM)	cell viability (Caco-2 [5]; 10 nM)	cell viability (Caco-2 [5]; 100 nM)	cell viability (Caco-2 [5]; 1000 nM)	cell viability (Caco-2 [5]; 10000 nM)	drug sensitivity score (Vero E6 [6])	drug sensitivity score (U2OS [7])	drug sensitivity score (Calu-3 [8])	drug sensitivity score (HepG2 [9])	drug sensitivity score (Caco-2 [10])	relative viability EC50 (Vero E6 [11])	relative viability EC50 (U2OS [12])	relative viability EC50 (Calu-3 [13])	relative viability EC50 (HepG2 [14])	relative viability EC50 (Caco-2 [15])
O=C(O)CC/C=C\C[C@@H]1CO[C@H](c2ccccc2Cl)O[C@@H]1c1ccccc1O (racemic)	93.1%	96.3%	92.6%	102%	106%	96.6%	95%	97.4%	95.5%	99.2%	93.8%	96.1%	102%	99%	98.9%	88.5%	103%	106%	108%	110%	91.4%	90.3%	105%	96.9%	92.6%	0	0	0	0	0	> 10 µM	> 10 µM	> 10 µM	> 10 µM	> 10 µM
O=C(NO)c1cnc(N2CCN(S(=O)(=O)c3ccc4ccccc4c3)CC2)nc1	102%	97.5%	100%	79.2%	-0.1%	97.9%	98.4%	94.5%	69.3%	4.2%	107%	103%	98.9%	75.5%	24.1%	107%	96.8%	91.5%	65.6%	11.7%	104%	128%	84.7%	51.8%	4.3%	8.8	9.4	7.7	8.9	11.2	1.71 µM	1.4 µM	1.34 µM	1.29 µM	0.894 µM
C[N+]1(C)CCC(OC(=O)C(O)(c2ccccc2)C2CCCC2)C1 (stereo not given) [glycopyrrolate]	106%	100%	100%	99.7%	98.3%	101%	102%	98%	99.5%	95.1%	102%	105%	97.7%	102%	98.5%	108%	99.3%	97.4%	92.3%	105%	104%	98.6%	94.8%	103%	96%	0	0	0	0	0	> 10 µM	> 10 µM	> 10 µM	> 10 µM	> 10 µM
C[C@]12CCC(=O)C=C1[C@@H]1C[C@@H]1[C@H]1[C@@H]3[C@@H]4C[C@@H]4[C@@]4(CCC(=O)O4)[C@@]3(C)CC[C@@H]12 [drospirenone]	108%	102%	112%	101%	89.2%	98.7%	102%	103%	104%	88.3%	99.5%	97.9%	97.4%	100%	120%	99.1%	102%	106%	98.4%	92.7%	86.1%	96.5%	96.1%	94.1%	108%	0	0	0	0	0	> 10 µM	> 10 µM	> 10 µM	> 10 µM	> 10 µM
C#C[C@]1(O)CC[C@H]2[C@@H]3CCC4=CC(=O)CC[C@@H]4[C@H]3C(=C)C[C@@]21CC [etonogestrel]	98.2%	84.7%	95.6%	85.2%	104%	93.8%	95.1%	93.8%	97.1%	103%	92.7%	95.1%	104%	97.6%	102%	95.4%	97.2%	94.1%	90%	104%	87.3%	75.4%	98.7%	81.7%	104%	0	0	0	0	0.6	> 10 µM	> 10 µM	> 10 µM	> 10 µM	> 10 µM
C=CC1=C(C)C2=CC3=NC(=C(CC(=O)O)C4=NC(=C(C)C4=C(O)O)C=c4[nH]c(c(C)c4CC)=CC1=N2)C(CCC(=O)O)C3C (stereo not given) [chlorophyllin]	100%	99.9%	95.7%	96.9%	92.6%	97.7%	96.1%	100%	96%	103%	111%	89.7%	93.2%	101%	116%	97.3%	106%	115%	112%	106%	102%	104%	96.6%	91%	91.4%	0	0	0	0	0	> 10 µM	> 10 µM	> 10 µM	> 10 µM	> 10 µM
CC(C)(C)NCc1cc(Nc2ccnc3cc(Cl)ccc23)c2c(c1O)CCCC2 [naphthoquine-phosphate]	106%	110%	108%	99.3%	93.5%	96.3%	96.6%	103%	95.9%	98.1%	96.3%	98%	101%	91%	109%	106%	106%	106%	99.6%	98.6%	108%	99.7%	98.5%	99.6%	83%	0	0	0	0	0.4	> 10 µM	> 10 µM	> 10 µM	> 10 µM	> 10 µM
CNC(=N)NC(=O)Nc1c(C)cccc1C [lidamidine]	99.6%	96%	97.7%	102%	105%	98.6%	100%	97.7%	99.5%	100%	103%	102%	96.2%	88.7%	104%	101%	89.3%	106%	104%	108%	90.4%	99%	91.9%	95.3%	92.5%	0	0	0	0	0	> 10 µM	> 10 µM	> 10 µM	> 10 µM	> 10 µM
CN[C@@H](C)C(=O)N[C@H](C(=O)N1CCC[C@H]1C(=O)N[C@H]1c2ccccc2C[C@H]1OCC#CC#CCO[C@@H]1Cc2ccccc2[C@@H]1NC(=O)[C@@H]1CCCN1C(=O)[C@@H](NC(=O)[C@H](C)NC)C1CCCCC1)C1CCCCC1 [AZD5582]	100%	106%	119%	95.2%	136%	98.3%	104%	98.4%	101%	91.1%	102%	99.8%	85.8%	73.2%	37.7%	107%	98.8%	94%	106%	87.8%	93.3%	103%	102%	93.4%	82.4%	0	0	6.8	0	1.1	> 10 µM	> 10 µM	0.927 µM	> 10 µM	> 10 µM
COC(=O)CN1CN(c2ccccc2)C2(CCN(Cc3cccc4ccccc34)CC2)C1=O [NNC-63-0532]	90.2%	97.3%	96.5%	90.7%	103%	100%	96.1%	94.9%	102%	98.7%	98.2%	106%	97.7%	114%	102%	93.5%	104%	99.6%	95%	99.8%	102%	96.3%	95%	99.7%	96.9%	0	0	0	0	0	> 10 µM	> 10 µM	> 10 µM	> 10 µM	> 10 µM
COc1ccc(-c2ccc(=N)n(CCCC(=O)O)n2)cc1 [gabazine]	99.5%	100%	98.9%	95.9%	96%	102%	98.5%	100%	97.1%	103%	94.8%	104%	95.1%	98%	93.5%	91.5%	97%	96.8%	95.4%	100%	111%	106%	99.9%	105%	103%	0	0	0	0	0	> 10 µM	> 10 µM	> 10 µM	> 10 µM	> 10 µM
O=C(/C=C/N1C[C@H]2C[C@@H]1CN2c1ccccn1)c1ccccc1O [PFI-3]	99.3%	90.4%	99.6%	93.8%	104%	92.6%	99.7%	96.1%	99.7%	101%	101%	115%	98.1%	96.1%	107%	97.3%	99.8%	110%	99.5%	96.2%	92%	94.5%	88.5%	98.1%	106%	0	0	0	0	0	> 10 µM	> 10 µM	> 10 µM	> 10 µM	> 10 µM
COc1ccccc1C(=O)Nc1cccc(NC(=O)c2cccc(C)c2)c1 [ML365]	102%	100%	101%	98.2%	95%	107%	102%	103%	98.5%	99%	99%	98.4%	96.2%	98.4%	94.3%	113%	98.7%	91.6%	116%	85.8%	97.8%	101%	97.4%	92.8%	86%	0	0	0	0	0.3	> 10 µM	> 10 µM	> 10 µM	> 10 µM	> 10 µM
O=C1C(c2ccccn2)=[N+]([O-])c2ccccc21 [PIT]	102%	102%	97%	97.6%	97.5%	97.6%	100%	99%	95.3%	101%	95.2%	106%	94.7%	93.9%	102%	99.8%	103%	96%	91.8%	97.9%	104%	95.1%	92.7%	92.1%	109%	0	0	0	0	0	> 10 µM	> 10 µM	> 10 µM	> 10 µM	> 10 µM
